Data from patent US8299111B2, “Compounds which modulate the CB2 receptor” (Boehringer Ingelheim International GmbH, priority 2006, dated 2012).

Each compound was assayed against T1, human CB2R (Homo sapiens, UniProt P34972) (assay: CB2R mediated modulation of cAMP synthesis). Settings: found through the use of the above described assays (binding and cAMP); CHO cells expressing human CB2R, forskolin-stimulated cAMP.
T1 construct: host or cells: CHO cells
Type: cell-based
Summary of the method: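 CHO cells expressing human CB2R were treated for 30 min at 37 °C with compound in buffer containing 1 mM IBMX, 0.25% BSA and 10 uM forskolin. cAMP was measured after lysis. EC50 is the concentration giving 50% inhibition of forskolin-stimulated cAMP, scaled to the level set by 1 uM CP55940, fitted by four-parameter logistic.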

T1 sequence (P34972 whole entry): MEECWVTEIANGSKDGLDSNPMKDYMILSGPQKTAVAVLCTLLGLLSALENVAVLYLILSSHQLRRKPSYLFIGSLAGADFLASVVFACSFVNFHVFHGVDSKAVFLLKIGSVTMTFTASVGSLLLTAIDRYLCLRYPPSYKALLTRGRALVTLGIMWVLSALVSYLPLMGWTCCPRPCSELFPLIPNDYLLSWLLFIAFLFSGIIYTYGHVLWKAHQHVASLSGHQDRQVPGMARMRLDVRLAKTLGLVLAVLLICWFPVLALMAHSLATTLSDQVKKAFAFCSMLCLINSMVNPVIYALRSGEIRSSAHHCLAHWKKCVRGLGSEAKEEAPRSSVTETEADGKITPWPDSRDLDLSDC

Row | SMILES | agonistic activity
1 | Cc1ccccc1S(=O)(=O)C(C)(C)C(=O)Nc1nc(C)c(C(C)(C)C)s1 [N-(5-tert-Butyl-4-methyl-thiazol-2-yl)-2-methyl-2-(toluene-2-sulfonyl)-propionamide] | agonistic activity
2 | CC(C)(C(=O)Nc1nc(-c2ccccc2)cs1)S(=O)(=O)c1ccc(Cl)cc1 [2-(4-Chloro-benzenesulfonyl)-2-methyl-N-(4-phenyl-thiazol-2-yl)-propionamide] | agonistic activity
3 | CC(C)(C)c1ccc(S(=O)(=O)C(C)(C)C(=O)Nc2cc(C(C)(C)C)on2)cc1 [2-(4-tert-Butyl-benzenesulfonyl)-N-(5-tert-butyl-isoxazol-3-yl)-2-methyl-propionamide] | agonistic activity
4 | CC(C)(C(=O)Nc1nc(C2CCCCC2)cs1)S(=O)(=O)c1ccc(S(C)(=O)=O)cc1 [N-(4-cyclohexyl-1,3-thiazol-2-yl)-2-methyl-2-{[4-(methylsulfonyl)phenyl]sulfonyl}propanamide] | agonistic activity
5 | CC(C)(C(=O)Nc1ncccc1C(F)(F)F)S(=O)(=O)c1ccc(Cl)cc1 [2-(4-Chloro-benzenesulfonyl)-2-methyl-N-(3-trifluoromethyl-pyridin-2-yl)-propionamide] | agonistic activity
6 | CC(C)C(C(=O)Nc1cccc(C(F)(F)F)n1)S(=O)(=O)c1ccc(C(F)(F)F)cc1 (stereo not shown) [3-Methyl-2-(4-trifluoromethyl-benzenesulfonyl)-N-(6-trifluoromethyl-pyridin-2-yl)-butyramide] | agonistic activity
7 | CC(C)(C(=O)Nc1ccc(C(F)(F)F)cn1)S(=O)(=O)c1ccc(Br)cc1 [2-(4-Bromo-benzenesulfonyl)-2-methyl-N-(5-trifluoromethyl-pyridin-2-yl)-propionamide] | agonistic activity
8 | Cn1nc(C(C)(C)C)cc1NC(=O)C1(S(=O)(=O)c2ccc(C(F)(F)F)cc2)CC1 [1-(4-Trifluoromethyl-benzenesulfonyl)-cyclopropanecarboxylic acid (5-tert-butyl-2-methyl-2H-pyrazol-3-yl)-amide] | agonistic activity
9 | CCc1sc(NC(=O)C(C)(C)S(=O)(=O)c2ccc(Cl)cc2F)nc1-c1ccccc1 [2-(4-Chloro-2-fluoro-benzenesulfonyl)-N-(5-ethyl-4-phenyl-thiazol-2-yl)-2-methyl-propionamide] | agonistic activity
10 | COc1ccc(S(=O)(=O)C(C)(C)C(=O)Nc2cccc(C(F)(F)F)n2)cc1 [2-[(4-methoxyphenyl)sulfonyl]-2-methyl-N-[6-(trifluoromethyl)pyridin-2-yl]propanamide] | agonistic activity
11 | CC(C)(C(=O)Nc1cccc(C(F)(F)F)n1)S(=O)(=O)c1ccccc1 [2-Benzenesulfonyl-2-methyl-N-(6-trifluoromethyl-pyridin-2-yl)-propionamide] | agonistic activity
12 | CC(C)(C)c1cc(NC(=O)C(C)(C)S(=O)(=O)c2ccc(C(F)(F)F)nc2)on1 [N-(3-tert-butylisoxazol-5-yl)-2-methyl-2-{[6-(trifluoromethyl)pyridin-3-yl]sulfonyl}propanamide] | agonistic activity
13 | CC(C)(C(=O)Nc1nc2ccc(F)cc2s1)S(=O)(=O)c1ccc(Cl)cc1 [2-[(4-chlorophenyl)sulfonyl]-N-(6-fluoro-1,3-benzothiazol-2-yl)-2-methylpropanamide] | agonistic activity
14 | COc1ccc(S(=O)(=O)C(C)(C)C(=O)Nc2cnc3ccccc3c2)cc1 [2-(4-Methoxy-benzenesulfonyl)-2-methyl-N-quinolin-3-yl-propionamide] | agonistic activity
15 | CC(C)(C(=O)Nc1cccc(C(F)(F)F)n1)S(=O)(=O)c1ccc(Br)cc1 [2-(4-Bromo-benzenesulfonyl)-2-methyl-N-(6-trifluoromethyl-pyridin-2-yl)-propionamide] | agonistic activity
16 | Cn1nc(-c2ccccc2)cc1NC(=O)C(C)(C)S(=O)(=O)c1ccccc1 [2-Benzenesulfonyl-2-methyl-N-(2-methyl-5-phenyl-2H-pyrazol-3-yl)-propionamide] | agonistic activity
17 | Cc1onc(NC(=O)C(C)(C)S(=O)(=O)c2ccc(Cl)cc2)c1C [2-(4-Chloro-benzenesulfonyl)-N-(4,5-dimethyl-isoxazol-3-yl)-2-methyl-propionamide] | agonistic activity
18 | CC(C)(C(=O)Nc1ccc(F)c(C(F)(F)F)c1)S(=O)(=O)c1ccc(Cl)cc1 [2-[(4-chlorophenyl)sulfonyl]-N-[4-fluoro-3-(trifluoromethyl)phenyl]-2-methylpropanamide] | agonistic activity
19 | CC(C)(C)c1cc(NC(=O)C(C)(C)S(=O)(=O)c2cccc(OC(F)(F)F)c2)no1 [N-(5-tert-Butyl-isoxazol-3-yl)-2-methyl-2-(3-trifluoromethoxy-benzenesulfonyl)-propionamide] | agonistic activity
20 | Cc1nc(NC(=O)C2(S(=O)(=O)c3ccc(C(F)(F)F)cc3)CCC2)sc1C(C)(C)C [1-(4-Trifluoromethyl-benzenesulfonyl)-cyclobutanecarboxylic acid (5-tert-butyl-4-methyl-thiazol-2-yl)-amide] | agonistic activity
21 | CC(C)(C)c1csc(NC(=O)C(C)(C)S(=O)(=O)c2ccccc2)n1 [2-Benzenesulfonyl-N-(4-tert-butyl-thiazol-2-yl)-2-methyl-propionamide] | agonistic activity
22 | Cn1nc(-c2ccccc2)cc1NC(=O)C(C)(C)S(=O)(=O)c1ccc(F)cc1F [2-(2,4-Difluoro-benzenesulfonyl)-2-methyl-N-(2-methyl-5-phenyl-2H-pyrazol-3-yl)-propionamide] | agonistic activity
23 | COc1ccc(S(=O)(=O)C(C)(C)C(=O)Nc2cc(C(C)(C)C)nn2C)cc1F [N-(5-tert-Butyl-2-methyl-2H-pyrazol-3-yl)-2-(3-fluoro-4-methoxy-benzenesulfonyl)-2-methyl-propionamide] | agonistic activity
24 | Cn1nc(C(C)(C)C)cc1NC(=O)C(C)(C)S(=O)(=O)c1cc(F)ccc1F [N-(5-tert-Butyl-2-methyl-2H-pyrazol-3-yl)-2-(2,5-difluoro-benzenesulfonyl)-2-methyl-propionamide] | agonistic activity
25 | CC(C)(C(=O)Nc1ccccc1Cl)S(=O)(=O)c1ccc(Cl)cc1 [2-(4-Chloro-benzenesulfonyl)-N-(2-chloro-phenyl)-2-methyl-propionamide] | agonistic activity
26 | CC(C)(C(=O)Nc1cccc(C(F)(F)F)n1)S(=O)(=O)c1ccc(Cl)cc1 [2-(4-Chloro-benzenesulfonyl)-2-methyl-N-(6-trifluoromethyl-pyridin-2-yl)-propionamide] | agonistic activity
27 | CC(C)C(C(=O)Nc1cc(C(C)(C)C)on1)S(=O)(=O)c1ccc(C(F)(F)F)cn1 (stereo not shown) [N-(5-tert-Butyl-isoxazol-3-yl)-3-methyl-2-(5-trifluoromethyl-pyridine-2-sulfonyl)-butyramide] | agonistic activity
28 | Cc1nc(NC(=O)C(C)(C)S(=O)(=O)c2ccc(Cl)c(Cl)c2)sc1C(C)(C)C [N-(5-tert-Butyl-4-methyl-thiazol-2-yl)-2-(3,4-dichloro-benzenesulfonyl)-2-methyl-propionamide] | agonistic activity
